{"source": "patent US7718385B2", "about": "“Bioactivation of alkylating agents for cancer treatment” (priority 2003, dated 2010)", "key": {"[1]": {"molecular_target": "T1, recombinant AOR (Rattus norvegicus, UniProt P97584, Q160G/Q263G/Q264G/Q276G)", "T1 construct": "made in house", "T1 sequence (P97584 whole entry Q160G/Q263G/Q264G/Q276G)": "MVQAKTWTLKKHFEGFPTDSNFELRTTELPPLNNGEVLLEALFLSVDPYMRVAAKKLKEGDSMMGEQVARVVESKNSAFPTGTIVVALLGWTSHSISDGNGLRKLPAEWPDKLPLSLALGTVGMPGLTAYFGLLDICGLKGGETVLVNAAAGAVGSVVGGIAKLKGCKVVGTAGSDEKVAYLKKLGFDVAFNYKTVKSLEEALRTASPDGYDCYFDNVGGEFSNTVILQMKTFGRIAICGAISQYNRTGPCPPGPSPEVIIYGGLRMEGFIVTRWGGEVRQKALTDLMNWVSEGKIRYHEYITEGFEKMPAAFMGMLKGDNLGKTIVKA", "experiment": "LC/MS/MS of enzymatic and nonenzymatic GSH adducts", "type": "biochemical", "procedure": "High Performance Liquid Chromatography with Tandem Mass Spectrometry (LC/MS/MS) of GSA Adducts. […] These reactions were incubated at 37° C. for 1 h. Controls lacking NAFPH were performed. Reactions were stopped and deproteinized with addition of 400 μl of ice-cold acetonitrile, spun at 3500×g for 10 min at 4° C., and the supernatants were evaporated to dryness under vacuum. Residual GSH and NADPH cofactors were removed using an Oasis C18 sample prep column (Waters Chromatography). Adducts were eluted with methanol, evaporated to dryness under vacuum, resuspended in […] of 0.1% acetic acid, and detected using liquid chromatography electrospray ionization tandem mass spectrometry performed in the positive ion mode. […] A flow rate of 0.1 ml/min and gradient of 0% buffer D (70% acetic acid (0.1%):30% acetonitrile) to 100% buffer E (20% acetic acid (0.1%):80% acetonitrile) over 30 min were used to resolve the compounds. Adducts were detected by monitoring for selected molecular ions or characteristic molecular fragments after MS/MS. Molecular fragments were obtained with 35% relative collusion energy.\nMeasuring GSH adduction is a commonly used technique for estimating covalent protein binding, and thus cytotoxicity, of a drug (Baillie and Kassahun, 2001). The nucleophilic thiol moiety of GSH effectively scavenges electrophilic molecules and its large size and charge prevent it from entering the active site of most enzymes. […] Daughter ions of adducts, which represent the loss of water (−18 m/z) or […] (−129 m/z), were common and monitored for in these experiments following MS/MS.\nEnzymatic reduction occurred in incubations containing recombinant AOR, NADPH, and GSH, while companion nonenzymatic reductions lacked NADPH. […] However the NE irofulven-GSH adduct (FIG. 5B) was detected only after monitoring for a daughter ion (M+—H2)=536 m/z) and was 42-fold less abundant than the E adduct. […] Contrary to findings with irofulven, a great deal of NE illudin M-GSH adduct was detected in NADPH-deficient incubations."}, "[2]": {"molecular_target": "recombinant rat AOR (Rattus norvegicus, UniProt P97584, Q160G/Q263G/Q264G/Q276G)", "sequence (P97584 whole entry Q160G/Q263G/Q264G/Q276G)": "as above", "method": "Varied concentrations of illudin M were added to a 200 μl 0.5× phosphate buffered saline (PBS) solution containing 115 ng of AOR and 43.4 nmoles NADPH, and incubated for 1 minute at 37° C. Reactions were then extracted with ethyl acetate containing piperine (internal standard), dried under vacuum, resuspended in HPLC buffer A (60% acetonitrile: 40% water), and injected into a Hewlett-Packard 1050 HPLC system equipped with a Luna C18 column (Phenomenex Inc.). Metabolites were separated using buffer A at a flow rate of 1 ml/min and quantified using diode array detection at 205 nm and previously reported extinction coefficients (Tanaka, et al., 1990). Vmax and Km were calculated using the HYPER program.\nRates were quantified from metabolite peak areas using reported extinction coefficients (Tanaka, et al., 1990; McMorris, et al., 1999)."}, "[3]": {"system": "293 cells"}}, "note": "Where two headings read alike, the source gives them in different places.", "data": [{"smiles": "CC1=C2C(=CC(C)(C)[C@@H]2O)C(=O)[C@](C)(O)C12CC2", "note": "[Illudin M]", "values": [{"measurement": "NE GSH adduct detected", "setting": "[1]; NADPH-deficient incubations", "result": "a great deal"}, {"measurement": "abundance of E (enzymatic) GSH adduct over NE (nonenzymatic) adduct", "setting": "[1]; incubations with AOR, GSH and NADPH, 1 h, 37° C.", "result": 14, "unit": "fold"}, {"measurement": "Km", "setting": "[2]", "result": 109, "unit": "µM"}, {"measurement": "maximal rate of metabolism by AOR", "setting": "[2]", "result": 44.1, "unit": "µmol/min/mg"}, {"measurement": "Km", "setting": "[2]; formation of Product 3", "result": 109, "unit": "µM"}, {"measurement": "Vmax", "setting": "[2]; formation of Product 3", "result": "29,200 nmol/min/mg"}, {"measurement": "Km", "setting": "[2]; formation of Product 4", "result": 113, "unit": "µM"}, {"measurement": "Vmax", "setting": "[2]; formation of Product 4", "result": "14,900 nmol/min/mg"}, {"measurement": "CC50", "setting": "[3]; read-out: LC50 (concentration required to produce 50 percent lethality), 293 cells, 24 h, MTT assay", "result": "~1000", "unit": "nM"}]}, {"smiles": "O=c1oc2ccccc2c(O)c1Cc1c(O)c2ccccc2oc1=O", "note": "[dicumarol, Dicumarol]", "values": [{"measurement": "effect on AOR-mediated activation of irofulven", "setting": "[3]", "result": "attenuated partially"}, {"measurement": "effect on cell growth", "setting": "[3]; 100 μM, alone", "result": "no effect on cell growth"}]}, {"smiles": "CC1=C2C(=C[C@@](C)(CO)[C@@H]2O)C(=O)[C@](C)(O)C12CC2", "note": "[Illudin S]", "values": [{"measurement": "Km", "setting": "[2]", "result": 308, "unit": "µM"}, {"measurement": "maximal rate of metabolism by AOR", "setting": "[2]", "result": 115.9, "unit": "µmol/min/mg"}, {"measurement": "Km", "setting": "[2]; formation of Product 5", "result": 486, "unit": "µM"}, {"measurement": "Vmax", "setting": "[2]; formation of Product 5", "result": "65,400 nmol/min/mg"}, {"measurement": "Km", "setting": "[2]; formation of Product 6", "result": 308, "unit": "µM"}, {"measurement": "Vmax", "setting": "[2]; formation of Product 6", "result": "50,500 nmol/min/mg"}]}]}
